This note sets out measurements from patent US9115117B2, “Substituted piperidine compounds and their use as orexin receptor modulators” (JANSSEN PHARMACEUTICA NV, priority 2013, dated 2015).

Structures are written as SMILES. Where a name gives a salt, the structure may show the parent alone.

One assay has as its target human orexin 2 receptor (Homo sapiens (Human), UniProt O43614). Nature of the assay: Human orexin 2 receptor radioligand binding ([3H]-EMPA). The note with it: HEK293 stably expressing human orexin 2 receptor; [3H]-EMPA; apparent Ki; read-out: hOX2 Ki. The method, then: After centrifugation (2K×G, 5 min at 4° C.), the supernatant was aspirated and the pellets frozen and stored at −80° C. […] Each cell pellet from a 15 cm plate was resuspended in 10 mL, stored on ice, and homogenized for 45 sec just prior to addition to the reactions. Competition binding experiments in 96 well polypropylene plates were performed using [^3H]-EMPA (Moraveck Corporation, specific activity=29.6 Ci/mmol), diluted to a 5 nM concentration in PBS (2 nM final concentration). […] The final concentration of DMSO in the reactions is equal to or less than 0.1%. Total and nonspecific binding was determined in the absence and presence of […]. The total volume of each reaction is 200 μL (20 μL of diluted compounds, 80 μL of [^3H]-EMPA diluted in PBS and 100 μL of the cell suspension).
The plates were washed 3 times by aspirating 30 ml PBS through the plates. Plates were dried in 55° C. oven for 60 min, scintillation fluid was added, and the radioactivity was counted on a Topcount (Packard).

Another assay addresses human orexin 1 receptor (Homo sapiens, UniProt O43613). The experiment in a line: Human orexin 1 receptor radioligand binding. The note with it: CHO cells stably expressing human orexin 1 receptor; apparent Ki; read-out: hOX1 Ki. The procedure:
The in vitro affinity of the compounds of the invention for the rat/human orexin 1 and human orexin 2 receptors was determined by competitive radioligand binding using [^3H](1-(5-(2-fluoro-phenyl)-2-methyl-thiazol-4-yl)-1-((S)-2-(5-phenyl-(1,3,4)oxadiazol-2-ylmethyl)-pyrrolidin-1-yl)-methanone)(Langmead et al., 2004) and [^3H]EMPA (n-ethyl-2[96-methoxy-pyridin-3-yl)-(toluene-2-sulfonyl)-amino]-N-pyridin-3-ylmethyl acetamide), respectively (Langmead et al., 2004, British Journal of Pharmacology 141:340-346; Malherbe et al., 2004, British Journal of Pharmacology 156:1326-41).
Human Embryonic Kidney 293 cells (HEK293) stably expressing rat orexin 1 receptor (Genebank accession number NM_001525) or Chinese ovary cells (CHO) stably expressing human orexin 1 receptor (Genebank accession number NM_001526) were grown to confluency in DMEM (Hyclone, cat #SH30022), 10% FBS, 1× Pen/Strep, 1× sodium pyruvate, 10 mM HEPES, 600 µg/mL G418 and DMEM/F12 (Gibco, Cat #11039), 10% FBS, 1× Pen/Strep, 600 µg/mL G418 media, respectively on 150 cm^2 tissue culture plates, washed with 5 mM EDTA in PBS (HyClone Dulbecco's Phoshpate Buffered Saline 1× with Calcium and Magnesium, Cat #SH30264.01, hereafter referred to simply as PBS) and scraped into 50 ml tubes. After centrifugation (2K×G, 5 min at 4° C.), the supernatant was aspirated and the pellets frozen and stored at −80° C. Cells were resuspended in PBS in the presence of 1 tablet of protease inhibitor cocktail (Roche, Cat. #11836145001) per 50 mL. Each cell pellet from a 15 cm plate was resuspended in 10 mL, stored on ice, and homogenized for 45 sec prior to addition to the reactions. Competition binding experiments in 96 well polypropylene plates were performed using [^3H]-(1-(5-(2-fluoro-phenyl)-2-methyl-thiazol-4-yl)-1-((S)-2-(5-phenyl-(1,3,4)oxadiazol-2-ylmethyl)-pyrrolidin-1-yl)-methanone) (Moraveck Corporation, specific activity=35.3 Ci/mmol), diluted to a 10 nM concentration in PBS (4 nM final). […] The final concentration of DMSO in the reactions is equal to or less than 0.1%. Total and nonspecific binding was determined in the absence and presence of 10 μM almorexant. The total volume of each reaction is 200 μL (20 μL of diluted compounds, 80 μL of [3H]-(1-(5-(2-fluoro-phenyl)-2-methyl-thiazol-4-yl)-1-((S)-2-(5-phenyl-(1,3,4)oxadiazol-2-ylmethyl)-pyrrolidin-1-yl)-methanone) diluted in PBS and 100 μL of the cell suspension). Reactions were run for 60 min at room temperature and terminated by filtration through GF/C filter plates (PerkinElmer, Cat. #6005174) presoaked in 0.3% polyethylenimine using the cell harvester (PerkinElmer Filtermate). The plates were washed 3 times by aspirating 30 ml PBS through the plates. Plates were dried in 55° C. oven for 60 min, scintillation fluid was added, and the radioactivity was counted on a Topcount (Packard).

The next assay deals with rat orexin 1 receptor (Rattus norvegicus, UniProt P56718). Nature of the assay: Rat orexin 1 receptor radioligand binding. The note with it: HEK293 cells stably expressing rat orexin 1 receptor; apparent Ki; read-out: rOX1 Ki. The method, then: After centrifugation (2K×G, 5 min at 4° C.), the supernatant was aspirated and the pellets frozen and stored at −80° C. […] Each cell pellet from a 15 cm plate was resuspended in 10 mL, stored on ice, and homogenized for 45 sec prior to addition to the reactions. Competition binding experiments in 96 well polypropylene plates were performed using [^3H]-(1-(5-(2-fluoro-phenyl)-2-methyl-thiazol-4-yl)-1-((S)-2-(5-phenyl-(1,3,4)oxadiazol-2-ylmethyl)-pyrrolidin-1-yl)-methanone) (Moraveck Corporation, specific activity=35.3 Ci/mmol), diluted to a 10 nM concentration in PBS (4 nM final). […] The final concentration of DMSO in the reactions is equal to or less than 0.1%. Total and nonspecific binding was determined in the absence and presence of 10 μM almorexant. The total volume of each reaction is 200 μL (20 μL of diluted compounds, 80 μL of [3H]-(1-(5-(2-fluoro-phenyl)-2-methyl-thiazol-4-yl)-1-((S)-2-(5-phenyl-(1,3,4)oxadiazol-2-ylmethyl)-pyrrolidin-1-yl)-methanone) diluted in PBS and 100 μL of the cell suspension). […] The plates were washed 3 times by aspirating 30 ml PBS through the plates. Plates were dried in 55° C. oven for 60 min, scintillation fluid was added, and the radioactivity was counted on a Topcount (Packard).

Sequence of human orexin 2 receptor (O43614 whole entry): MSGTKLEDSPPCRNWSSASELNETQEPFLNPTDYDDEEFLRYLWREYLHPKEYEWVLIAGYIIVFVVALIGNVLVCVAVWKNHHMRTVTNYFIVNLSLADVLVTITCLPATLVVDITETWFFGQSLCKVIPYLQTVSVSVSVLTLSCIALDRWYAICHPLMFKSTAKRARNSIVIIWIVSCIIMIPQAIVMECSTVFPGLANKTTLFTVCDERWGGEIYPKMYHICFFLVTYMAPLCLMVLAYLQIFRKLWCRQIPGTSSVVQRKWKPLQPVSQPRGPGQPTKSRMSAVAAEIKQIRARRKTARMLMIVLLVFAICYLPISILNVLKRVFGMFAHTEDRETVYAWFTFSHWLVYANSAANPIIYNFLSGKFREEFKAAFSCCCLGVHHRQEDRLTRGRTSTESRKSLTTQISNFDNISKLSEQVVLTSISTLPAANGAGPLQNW

On to `C[C@H]1[C@H](Nc2ccc(C(F)(F)F)cn2)CCCN1C(=O)c1cc(Cl)ccc1-n1nccn1` (racemic) [Example 17, (±)-trans-(5-chloro-2-(2H-1,2,3-triazol-2-yl)phenyl)(2-methyl-3-((5-(trifluoromethyl)pyridin-2-yl)amino)piperidin-1-yl)methanone], for which the figures for the Ki on human orexin 2 receptor, at human orexin 1 receptor and on rat orexin 1 receptor were 221 nM, 8 nM and 11 nM, respectively.
The corresponding values for `Cc1ccc(C(=O)N2CCC[C@@H](Nc3ccc(C(F)(F)F)cn3)[C@@H]2C)c(-n2nccn2)c1` [Example 14, (4-methyl-2-(2H-1,2,3-triazol-2-yl)phenyl)((2S,3R)-2-methyl-3-((5-(trifluoromethyl)pyridin-2-yl)amino)piperidin-1-yl)methanone] are 681 nM, 7 nM and 9 nM.
The corresponding values for `C[C@H]1[C@H](Oc2ncc(C(F)(F)F)cn2)CCCN1C(=O)c1ccccc1-n1nccn1` [Example 103, (2-(2H-1,2,3-triazol-2-yl)phenyl)((2S,3R)-2-methyl-3-((5-(trifluoromethyl)pyrimidin-2-yl)oxy)piperidin-1-yl)methanone] are 2300 nM, 97 nM and 44 nM.
In the same order, the values of `Cc1ccc(-c2ncco2)c(C(=O)N2CCC[C@@H](Nc3ccc(C(F)(F)F)cn3)[C@@H]2C)n1` (racemic) [Example 22, (±)-trans-(2-methyl-3-((5-(trifluoromethyl)pyridin-2-yl)amino)piperidin-1-yl)(6-methyl-3-(oxazol-2-yl)pyridin-2-yl)methanone hydrochloride] are 422 nM, 19 nM and 33 nM.
For the molecule `CCOc1ccccc1C(=O)N1CCC[C@@H](Nc2ccc(C(F)(F)F)cn2)[C@@H]1C` (racemic) [Example 29, (±)-trans-(2-ethoxyphenyl)(2-methyl-3-((5-(trifluoromethyl)pyridin-2-yl)amino)piperidin-1-yl)methanone], the Ki amounted to 1400 nM on human orexin 2 receptor, 90 nM on human orexin 1 receptor and 97 nM on rat orexin 1 receptor.
Regarding `Cc1ccc(-c2ncccn2)c(C(=O)N2CCC[C@@H](Nc3ncc(C(F)(F)F)cn3)[C@@H]2C)n1` [Example 78, ((2S,3R)-2-methyl-3-((5-(trifluoromethyl)pyrimidin-2-yl)amino)piperidin-1-yl)(6-methyl-3-(pyrimidin-2-yl)pyridin-2-yl)methanone], the Ki is 436 nM on human orexin 2 receptor, 57 nM at human orexin 1 receptor and 30 nM on rat orexin 1 receptor.
In the same order, the values of `Cc1ccc(C(=O)N2CCC[C@@H](Nc3ccc(Cl)cn3)[C@@H]2C)c(-n2nccn2)c1` [Example 99, ((2S,3R)-3-((5-chloropyridin-2-yl)amino)-2-methylpiperidin-1-yl)(4-methyl-2-(2H-1,2,3-triazol-2-yl)phenyl)methanone] are 1400 nM, 15 nM and 23 nM.
Turning to `Cc1ccc(N[C@@H]2CCCN(C(=O)c3ccccc3-n3nccn3)[C@H]2C)nc1` (racemic) [Example 37, (±)-trans-(2-(2H-1,2,3-triazol-2-yl)phenyl)(2-methyl-3-((5-methylpyridin-2-yl)amino)piperidin-1-yl)methanone], the Ki was 71 nM on human orexin 1 receptor and 76 nM at rat orexin 1 receptor.
Regarding `C[C@H]1[C@H](Nc2ncc(Cl)cn2)CCCN1C(=O)c1ccccc1-n1nccn1` (racemic) [Example 30, (±)-trans-(2-(2H-1,2,3-triazol-2-yl)phenyl)(3-((5-chloropyrimidin-2-yl)amino)-2-methylpiperidin-1-yl)methanone], the Ki at human orexin 1 receptor stood at 54 nM; on rat orexin 1 receptor, 55 nM.
As to `C[C@H]1[C@H](Nc2nccc(C(F)(F)F)n2)CCCN1C(=O)c1c(F)cccc1-n1nccn1` (racemic) [Example 10, (±)-trans-(2-fluoro-6-(2H-1,2,3-triazol-2-yl)phenyl)(2-methyl-3-((4-(trifluoromethyl)pyrimidin-2-yl)amino)piperidin-1-yl)methanone], the values for the Ki at human orexin 2 receptor and on human orexin 1 receptor were 144 nM and 315 nM, respectively.
